Assay results as given in publication PMC8053501 (Diabetes, Metabolic Syndrome and Obesity: Targets and …, 2021).
“Also recorded” adds a separate entry of the source. Like-named read-outs stand apart in the source and are kept apart here. Each block holds one compound with its values, some of them ahead of it.

Key:
[1] = in vivo; conditions: male, ICR, mouse, po; for Cmax: oral gavage; for half-life: t1/2
[2] = for Drug concentration, time course: normal mice; for Drug concentration, time course / Cmax / Tmax / t1/2 / AUC: oral gavage, 3mg/kg; for Cmax / Tmax / t1/2 / AUC / Tmax determined from the drug concentration in kidney and plasma (and liver): mouse; for AUC: AUC for 24 hr; for Tmax determined from the drug concentration in kidney and plasma (and liver): tissue not separated
[3] = test system: diabetes mellitus patients; assay: Acute kidney injury; format: in vivo, human; conditions: for Association with AKI, Unadjusted (95% CI) / Association with AKI, Adjusted (95% CI): metformin as reference; for Association with AKI, Adjusted (95% CI): multivariate; for Association with AKI compared to control drug metformin, in words: multivariate analysis; for Events During the 90 days (AKI): primary endpoint, first 90 days, patients above 55 years; for Total endpoint (AKI events): primary plus secondary endpoint; for Events at secondary end (AKI): secondary endpoint, after 90 days of hospital admission; for Total Percent (incidence rate of AKI at the end of the study): share of the 4966 total outcomes
[4] = Endpoint Diagnosis with 1047 Outcome
[5] = Secondary Diagnosis with 3919 Outcomes

Compound: CN(C)C(=N)N=C(N)N [Metformin, metformin]
- Tmax [1]: 0.5 h
- Tmax ([1]; 3 mg/kg): 0.5 h
- Association with AKI, Unadjusted (95% CI) [3, 4]: 1
- Association with AKI, Adjusted (95% CI) [3, 4]: 1
- Association with AKI, Unadjusted (95% CI) [3, 5]: 1.0 (Reference)
- Association with AKI, Adjusted (95% CI) [3, 5]: 1.0 (Reference)
- Events During the 90 days (AKI) [3]: 69
- Total endpoint (AKI events) [3]: 330
- Events at secondary end (AKI) [3]: 261
- Total Percent (incidence rate of AKI at the end of the study) [3]: 6.64%

Compound: insulin
- Cmax ([2]; Kidney): 6574 ng/mL
- Tmax ([2]; Kidney): 1 h
- AUC ([2]; Kidney): 26,742 ng/mL
- Cmax ([2]; Liver): 6087 ng/mL
- Tmax ([2]; Liver): 1 h
- AUC ([2]; Liver): 19,851 ng/mL
- Cmax ([2]; Plasma): 879 ng/mL
- Tmax ([2]; Plasma): 1 h
- AUC ([2]; Plasma): 2985 ng/mL
- Tmax determined from the drug concentration in kidney and plasma (and liver) [2]: 1 h
- Drug concentration, time course ([2]; Kidney, 0h): 0
- Drug concentration, time course ([2]; Kidney, 3h): 14,200
- Drug concentration, time course ([2]; Kidney, 6h): 10,400
- Drug concentration, time course ([2]; Kidney, 9h): 6400
- Drug concentration, time course ([2]; Kidney, 12h): 3700
- Drug concentration, time course ([2]; Kidney, 15h): 500
- Drug concentration, time course ([2]; Kidney, 18h): 0
- Drug concentration, time course ([2]; Kidney, 21h): 0
- Drug concentration, time course ([2]; Kidney, 24h): 0
- Drug concentration, time course ([2]; Liver, 0h): 0
- Drug concentration, time course ([2]; Liver, 3h): 9400
- Drug concentration, time course ([2]; Liver, 6h): 5050
- Drug concentration, time course ([2]; Liver, 9h): 2380
- Drug concentration, time course ([2]; Liver, 12h): 370
- Drug concentration, time course ([2]; Liver, 15h): 0
- Drug concentration, time course ([2]; Liver, 18h): 0
- Drug concentration, time course ([2]; Liver, 21h): 0
- Drug concentration, time course ([2]; Liver, 24h): 0
- Drug concentration, time course ([2]; Plasma, 0h): 0
- Drug concentration, time course ([2]; Plasma, 3h): 640
- Drug concentration, time course ([2]; Plasma, 6h): 450
- Drug concentration, time course ([2]; Plasma, 9h): 310
- Drug concentration, time course ([2]; Plasma, 12h): 50
- Drug concentration, time course ([2]; Plasma, 15h): 0
- Drug concentration, time course ([2]; Plasma, 18h): 0
- Drug concentration, time course ([2]; Plasma, 21h): 0
- Drug concentration, time course ([2]; Plasma, 24h): 0
- Association with AKI, Unadjusted (95% CI) [3, 4]: 2.26 (1.95–2.64)
- Association with AKI, Adjusted (95% CI) [3, 4]: 2.36 (1.81–2.87)
- Association with AKI, Unadjusted (95% CI) [3, 5]: 2.42 (1.25–2.61)
- Association with AKI, Adjusted (95% CI) [3, 5]: 2.73 (2.28–2.90)
- Association with AKI compared to control drug metformin, in words [3]: increased rate of AKI; also recorded: higher risk for AKI
- Total endpoint (AKI events) [3]: 348
- Events at secondary end (AKI) [3]: 290

Further lines, with some results ahead:

- Tmax [1]: 1 h
- Tmax ([1]; 3 mg/kg): 1 h
- Cmax ([1]; 3 mg/kg, Kidney): 8560 ng/mL
- Cmax ([1]; 3 mg/kg, Liver): 6730 ng/mL
- Cmax ([1]; 3 mg/kg, Plasma): 943 ng/mL
- half-life ([1]; 3 mg/kg): 2.4 h
- Drug concentration, time course ([2]; Kidney, 0h): 0
- Drug concentration, time course ([2]; Kidney, 3h): 6700
- Drug concentration, time course ([2]; Kidney, 6h): 4300
- Drug concentration, time course ([2]; Kidney, 9h): 2350
- Drug concentration, time course ([2]; Kidney, 12h): 100
- Drug concentration, time course ([2]; Kidney, 15h): 50
- Drug concentration, time course ([2]; Kidney, 18h): 0
- Drug concentration, time course ([2]; Kidney, 21h): 0
- Drug concentration, time course ([2]; Kidney, 24h): 0
- Drug concentration, time course ([2]; Liver, 0h): 0
- Drug concentration, time course ([2]; Liver, 3h): 6340
- Drug concentration, time course ([2]; Liver, 6h): 3500
- Drug concentration, time course ([2]; Liver, 9h): 1980
- Drug concentration, time course ([2]; Liver, 12h): 300
- Drug concentration, time course ([2]; Liver, 15h): 100
- Drug concentration, time course ([2]; Liver, 18h): 0
- Drug concentration, time course ([2]; Liver, 21h): 0
- Drug concentration, time course ([2]; Liver, 24h): 0
- Drug concentration, time course ([2]; Plasma, 0h): 0
- Drug concentration, time course ([2]; Plasma, 3h): 400
- Drug concentration, time course ([2]; Plasma, 6h): 250
- Drug concentration, time course ([2]; Plasma, 9h): 50
- Drug concentration, time course ([2]; Plasma, 12h): 0
- Drug concentration, time course ([2]; Plasma, 15h): 0
- Drug concentration, time course ([2]; Plasma, 18h): 0
- Drug concentration, time course ([2]; Plasma, 21h): 0
- Drug concentration, time course ([2]; Plasma, 24h): 0
Compound: Cn1c(=O)cc(N2CCC[C@@H](N)C2)n(Cc2ccccc2C#N)c1=O [Alogliptin, alogliptin]
- Association with AKI, Unadjusted (95% CI) [3, 4]: 1.83 (1.75–2.16)
- Association with AKI, Adjusted (95% CI) [3, 4]: 1.43 (1.31–2.04)
- Association with AKI, Unadjusted (95% CI) [3, 5]: 2.27 (1.08–3.12)
- Association with AKI, Adjusted (95% CI) [3, 5]: 2.85 (2.26–3.07)
- Association with AKI compared to control drug metformin, in words [3]: increased rate of AKI
- Events During the 90 days (AKI) [3]: 91
- Total endpoint (AKI events) [3]: 364
- Events at secondary end (AKI) [3]: 273
- Total Percent (incidence rate of AKI at the end of the study) [3]: 7.33%

- Cmax ([2]; Kidney): 3765 ng/mL
- Tmax ([2]; Kidney): 1 h
- t1/2 ([2]; Kidney): 2.4 h
- AUC ([2]; Kidney): 12,100 ng/mL
- Cmax ([2]; Liver): 3217 ng/mL
- Tmax ([2]; Liver): 1 h
- t1/2 ([2]; Liver): 2.8 h
- AUC ([2]; Liver): 10,100 ng/mL
- Cmax ([2]; Plasma): 542 ng/mL
- Tmax ([2]; Plasma): 1 h
- t1/2 ([2]; Plasma): 2.1 h
- AUC ([2]; Plasma): 1432 ng/mL
- Tmax determined from the drug concentration in kidney and plasma (and liver) [2]: 1 h
- Drug concentration, time course ([2]; Kidney, 0h): 0
- Drug concentration, time course ([2]; Kidney, 3h): 5000
- Drug concentration, time course ([2]; Kidney, 6h): 4300
- Drug concentration, time course ([2]; Kidney, 9h): 900
- Drug concentration, time course ([2]; Kidney, 12h): 300
- Drug concentration, time course ([2]; Kidney, 15h): 0
- Drug concentration, time course ([2]; Kidney, 18h): 0
- Drug concentration, time course ([2]; Kidney, 21h): 0
- Drug concentration, time course ([2]; Kidney, 24h): 0
- Drug concentration, time course ([2]; Liver, 0h): 0
- Drug concentration, time course ([2]; Liver, 3h): 4700
- Drug concentration, time course ([2]; Liver, 6h): 3900
- Drug concentration, time course ([2]; Liver, 9h): 600
- Drug concentration, time course ([2]; Liver, 12h): 100
- Drug concentration, time course ([2]; Liver, 15h): 0
- Drug concentration, time course ([2]; Liver, 18h): 0
- Drug concentration, time course ([2]; Liver, 21h): 0
- Drug concentration, time course ([2]; Liver, 24h): 0
- Drug concentration, time course ([2]; Plasma, 0h): 0
- Drug concentration, time course ([2]; Plasma, 3h): 500
- Drug concentration, time course ([2]; Plasma, 6h): 300
- Drug concentration, time course ([2]; Plasma, 9h): 50
- Drug concentration, time course ([2]; Plasma, 12h): 0
- Drug concentration, time course ([2]; Plasma, 15h): 0
- Drug concentration, time course ([2]; Plasma, 18h): 0
- Drug concentration, time course ([2]; Plasma, 21h): 0
- Drug concentration, time course ([2]; Plasma, 24h): 0
Compound: Cc1ccc([C@@H]2O[C@H](CO)[C@@H](O)[C@H](O)[C@H]2O)cc1Cc1ccc(-c2ccc(F)cc2)s1 [Canagliflozin, canagliflozin]
- Association with AKI, Unadjusted (95% CI) [3, 4]: 0.85 (0.67–1.21)
- Association with AKI, Adjusted (95% CI) [3, 4]: 1.06 (0.68–1.34)
- Association with AKI, Unadjusted (95% CI) [3, 5]: 0.89 (0.61–1.25)
- Association with AKI, Adjusted (95% CI) [3, 5]: 1.06 (0.91–1.42)
- Events During the 90 days (AKI) [3]: 66
- Total endpoint (AKI events) [3]: 267
- Events at secondary end (AKI) [3]: 201
- Total Percent (incidence rate of AKI at the end of the study) [3]: 5.38%

- Drug concentration, time course ([2]; Kidney, 0h): 0
- Drug concentration, time course ([2]; Kidney, 3h): 8130
- Drug concentration, time course ([2]; Kidney, 6h): 5630
- Drug concentration, time course ([2]; Kidney, 9h): 2390
- Drug concentration, time course ([2]; Kidney, 12h): 450
- Drug concentration, time course ([2]; Kidney, 15h): 30
- Drug concentration, time course ([2]; Kidney, 18h): 0
- Drug concentration, time course ([2]; Kidney, 21h): 0
- Drug concentration, time course ([2]; Kidney, 24h): 0
- Drug concentration, time course ([2]; Liver, 0h): 0
- Drug concentration, time course ([2]; Liver, 6h): 7460
- Drug concentration, time course ([2]; Liver, 9h): 4550
- Drug concentration, time course ([2]; Liver, 12h): 1650
- Drug concentration, time course ([2]; Liver, 15h): 340
- Drug concentration, time course ([2]; Liver, 18h): 80
- Drug concentration, time course ([2]; Liver, 21h): 0
- Drug concentration, time course ([2]; Liver, 24h): 0
- Drug concentration, time course ([2]; Plasma, 0h): 0
- Drug concentration, time course ([2]; Plasma, 3h): 360
- Drug concentration, time course ([2]; Plasma, 6h): 70
- Drug concentration, time course ([2]; Plasma, 9h): 30
- Drug concentration, time course ([2]; Plasma, 12h): 0
- Drug concentration, time course ([2]; Plasma, 15h): 0
- Drug concentration, time course ([2]; Plasma, 18h): 0
- Drug concentration, time course ([2]; Plasma, 21h): 0
- Drug concentration, time course ([2]; Plasma, 24h): 0
Compound: CC1=C(C(=O)O)N2C(=O)[C@@H](NC(=O)[C@H](N)c3ccccc3)[C@H]2SC1 [Cephalexin, cephalexin]
- Association with AKI, Adjusted (95% CI) [3, 4]: 1.52 (1.31–2.16)
- Association with AKI, Adjusted (95% CI) [3, 5]: 1.82 (1.31–2.25)
- Association with AKI compared to control drug metformin, in words [3]: increased rate of AKI; also recorded: higher risk for AKI
- Events During the 90 days (AKI) [3]: 50
- Total endpoint (AKI events) [3]: 333
- Events at secondary end (AKI) [3]: 283
- Total Percent (incidence rate of AKI at the end of the study) [3]: 6.71%

- Tmax [1]: 1 h
- Tmax ([1]; 3 mg/kg): 1 h
- half-life ([1]; 3 mg/kg): 2.8 h
Compound: CCOc1ccc(Cc2cc([C@@H]3O[C@H](CO)[C@@H](O)[C@H](O)[C@H]3O)ccc2Cl)cc1 [Dapagliflozin, dapagliflozin]
- Association with AKI, Unadjusted (95% CI) [3, 4]: 0.94 (0.71–1.25)
- Association with AKI, Adjusted (95% CI) [3, 4]: 0.84 (0.72–1.32)
- Association with AKI, Unadjusted (95% CI) [3, 5]: 0.81 (0.63–1.33)
- Association with AKI, Adjusted (95% CI) [3, 5]: 0.93 (0.58–1.24)
- Events During the 90 days (AKI) [3]: 73
- Total endpoint (AKI events) [3]: 298
- Events at secondary end (AKI) [3]: 225
- Total Percent (incidence rate of AKI at the end of the study) [3]: 6%
- Total Percent (incidence rate of AKI at the end of the study) ([3]; listed as dapagliflozin): 6.0%
